# Experimental data from patent US12252524B2, “GIP/GLP1 co-agonist compounds” (Eli Lilly and Company, priority 2018, dated 2025).
# Numbered stars: 1 amine (or outer) side, 2 acyl side, 3 side chain; on linkers, the order of the positions; unused ones are H or OH. Square brackets hold non-standard residues; d marks the D form. Side chains are listed from the residue outwards. Peptide text beside a SMILES is read from it. * marks the point of attachment. C20 diacid = O=C(O)CCCCCCCCCCCCCCCCCCC(=O)*; αMePhe(2-F) = C[C@](N)(Cc1ccccc1F)C(=O)O; γGlu = O=C(O)[C@H](CCC(=O)[*:2])N[*:1]; αMeF = C[C@](N)(Cc1ccccc1)C(=O)O; αMeL = CC(C)C[C@](C)(N)C(=O)O; Dab = NCC[C@H](N)C(=O)O; AEEA = NCCOCCOCC(=O)O; Aib = CC(C)(N)C(=O)O
# Columns and labels:
# [1] = molecular target: T1, human GIP receptor (Homo sapiens, UniProt P48546); test: [125I]-GIP binding (SPA), human GIP receptor; conditions: read-out: hGIPR Ki, nM (SEM, n)
# T1 construct: expressed in transfected cells; crude membranes
# T1 sequence (P48546 22-466): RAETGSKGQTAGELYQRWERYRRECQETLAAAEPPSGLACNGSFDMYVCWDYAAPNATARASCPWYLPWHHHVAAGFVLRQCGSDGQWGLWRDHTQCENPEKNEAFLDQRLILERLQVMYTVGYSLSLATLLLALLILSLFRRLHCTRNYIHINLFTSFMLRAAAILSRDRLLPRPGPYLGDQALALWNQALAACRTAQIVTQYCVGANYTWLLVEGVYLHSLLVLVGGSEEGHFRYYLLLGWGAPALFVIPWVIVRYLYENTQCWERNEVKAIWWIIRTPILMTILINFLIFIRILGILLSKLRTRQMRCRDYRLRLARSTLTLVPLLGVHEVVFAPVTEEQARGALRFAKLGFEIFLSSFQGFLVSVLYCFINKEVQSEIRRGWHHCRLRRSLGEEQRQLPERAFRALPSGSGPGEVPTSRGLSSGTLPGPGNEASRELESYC
# [2] = molecular target: T2, gastric inhibitory peptide receptor (GIPR) (Homo sapiens, UniProt P48546); test: cAMP pharmacological functional assay in presence of casein, hGIPR; format: cell-based; conditions: HEK293 cells expressing hGIPR, 0.1% Casein, geometric mean; read-out: hGIPR cAMP Rel EC50 nM (SEM, n)
# T2 sequence (P48546 22-466): T1 sequence (P48546 22-466)
# [3] = molecular target: T3, human Gcg receptor (Homo sapiens, UniProt P47871); test: [125I]-Glucagon binding (SPA), human Gcg receptor; conditions: read-out: hGLcgR Ki, nM (SEM, n)
# T3 construct: expressed in transfected cells; crude membranes
# Summary of the method: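 Scintillation counts are taken after membranes and WGA beads incubate and settle for 12 hours at room temperature. Buffer is 25 mM HEPES, pH 7.4, with CaCl2, MgCl2, bacitracin and Tween-20. Ki values, from four-parameter IC50 fits, are geometric means over independent days.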
# [4] = molecular target: human GLP-1 receptor (GLP-1R) (Homo sapiens, UniProt P43220); test: cAMP pharmacological functional assay in presence of casein, hGLP-1R; format: cell-based; conditions: HEK293 cells expressing hGLP-1R, 0.1% Casein, geometric mean; read-out: hGLP1R cAMP Rel EC50 nM (SEM, n)
# [5] = molecular target: human GLP-1R (Homo sapiens, UniProt P43220); test: [125I]-GLP-1 binding (SPA), human GLP-1 receptor; design: expressed in transfected cells; crude membranes; conditions: read-out: hGLP1R Ki, (nM) (SEM, n)
# Summary of the method: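 Assay buffer: HEPES 25 mM, pH 7.4, CaCl2 2.5 mM, MgCl2 1 mM, with EDTA-free protease inhibitors. Receptor came from crude cell membranes prepared by homogenization and centrifugation at 4° C. IC50s came from four-parameter fits (maximum, minimum, IC50, Hill slope) and were expressed as Ki geometric means with SEM.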
# human GLP-1 receptor (GLP-1R), sequence (P43220 24-463): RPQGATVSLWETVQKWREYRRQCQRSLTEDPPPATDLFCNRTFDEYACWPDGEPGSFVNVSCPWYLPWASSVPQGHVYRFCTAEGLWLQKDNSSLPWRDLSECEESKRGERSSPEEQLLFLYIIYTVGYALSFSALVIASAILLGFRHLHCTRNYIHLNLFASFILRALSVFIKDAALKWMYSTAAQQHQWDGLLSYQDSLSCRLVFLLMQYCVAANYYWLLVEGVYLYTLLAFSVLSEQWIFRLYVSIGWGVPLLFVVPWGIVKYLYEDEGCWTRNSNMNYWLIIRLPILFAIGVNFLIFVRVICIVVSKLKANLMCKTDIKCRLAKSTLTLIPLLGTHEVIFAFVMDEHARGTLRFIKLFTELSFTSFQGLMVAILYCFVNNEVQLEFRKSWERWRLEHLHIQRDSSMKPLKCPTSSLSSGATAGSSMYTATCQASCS
# human GLP-1R, sequence (P43220 24-463): as above
# T3 sequence (P47871 26-477): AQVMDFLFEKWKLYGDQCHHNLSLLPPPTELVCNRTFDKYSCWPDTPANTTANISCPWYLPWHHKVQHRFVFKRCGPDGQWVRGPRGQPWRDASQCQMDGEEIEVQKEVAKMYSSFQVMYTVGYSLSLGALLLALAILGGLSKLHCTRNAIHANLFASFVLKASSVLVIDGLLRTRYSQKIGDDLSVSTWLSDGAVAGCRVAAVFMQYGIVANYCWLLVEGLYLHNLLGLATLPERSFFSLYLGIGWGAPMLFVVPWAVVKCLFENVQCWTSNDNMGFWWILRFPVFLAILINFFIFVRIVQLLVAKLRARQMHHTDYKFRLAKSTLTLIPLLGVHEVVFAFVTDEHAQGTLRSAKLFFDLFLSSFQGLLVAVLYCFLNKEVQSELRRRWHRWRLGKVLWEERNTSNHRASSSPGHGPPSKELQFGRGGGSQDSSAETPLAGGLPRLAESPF
Compound,Ki [1],EC50 [2],Ki [3],EC50 [4],Ki [5]
CC[C@H](C)[C@H](NC(=O)[C@H](CC(C)C)NC(=O)[C@H](Cc1ccc(O)cc1)NC(=O)[C@H](CCC(=O)O)NC(=O)[C@@H](NC(=O)[C@H](Cc1ccccc1)NC(=O)[C@H](C)NC(=O)C(C)(C)NC(=O)[C@H](CCC(N)=O)NC(=O)[C@H](C)NC(=O)[C@H](CCCCNC(=O)COCCOCCNC(=O)COCCOCCNC(=O)CC[C@H](NC(=O)CCCCCCCCCCCCCCCCCCC(=O)O)C(=O)O)NC(=O)[C@H](CCC(=O)O)NC(=O)[C@H](CC(=O)O)NC(=O)[C@H](CC(C)C)NC(=O)[C@](C)(CC(C)C)NC(=O)[C@@H](NC(=O)[C@H](CO)NC(=O)[C@H](Cc1ccc(O)cc1)NC(=O)[C@H](CC(=O)O)NC(=O)[C@H](CO)NC(=O)[C@@H](NC(=O)[C@](C)(Cc1ccccc1)NC(=O)[C@@H](NC(=O)CNC(=O)[C@H](CCC(=O)O)NC(=O)C(C)(C)NC(=O)[C@@H](N)Cc1ccc(O)cc1)[C@@H](C)O)[C@@H](C)O)[C@@H](C)CC)[C@@H](C)CC)C(=O)N[C@@H](CCC(=O)O)C(=O)NCC(=O)NCC(=O)N1CCC[C@H]1C(=O)N[C@@H](CO)C(=O)N[C@@H](CO)C(=O)NCC(=O)N[C@@H](C)C(=O)N1CCC[C@H]1C(=O)N1CCC[C@H]1C(=O)N1CCC[C@H]1C(=O)N[C@@H](CO)C(N)=O [Example 115] (H-Y[Aib]EGT[αMeF]TSDYSI[αMeL]LDEK([AEEA-AEEA-γGlu-C20 diacid])AQ[Aib]AFIEYLIEGGPSSGAPPPS-NH2),0.0302 nM,0.102 nM,9.89 nM,0.088 nM,3.43 nM
CC[C@H](C)[C@H](NC(=O)[C@H](Cc1ccccc1)NC(=O)[C@H](C)NC(=O)C(C)(C)NC(=O)[C@H](CCC(N)=O)NC(=O)[C@H](C)NC(=O)[C@H](CCCCNC(=O)COCCOCCNC(=O)COCCOCCNC(=O)CC[C@H](NC(=O)CCCCCCCCCCCCCCCCCCC(=O)O)C(=O)O)NC(=O)[C@H](CCCCN)NC(=O)[C@H](CC(=O)O)NC(=O)[C@H](CC(C)C)NC(=O)[C@H](CC(C)C)NC(=O)[C@@H](NC(=O)[C@H](CO)NC(=O)[C@H](Cc1ccc(O)cc1)NC(=O)[C@H](CC(=O)O)NC(=O)[C@H](CO)NC(=O)[C@@H](NC(=O)[C@H](Cc1ccccc1)NC(=O)[C@@H](NC(=O)CNC(=O)[C@H](CCC(=O)O)NC(=O)C(C)(C)NC(=O)[C@@H](N)Cc1c[nH]cn1)[C@@H](C)O)[C@@H](C)O)[C@@H](C)CC)C(=O)N[C@@H](CCC(=O)O)C(=O)N[C@@H](Cc1ccc(O)cc1)C(=O)N[C@@H](CC(C)C)C(=O)N[C@@H](CC(C)C)C(=O)N[C@@H](CCC(=O)O)C(=O)NC(C)(C)C(=O)NCC(=O)N1CCC[C@H]1C(=O)N[C@@H](CO)C(=O)N[C@@H](CO)C(=O)NCC(=O)N[C@@H](C)C(=O)N1CCC[C@H]1C(=O)N1CCC[C@H]1C(=O)N1CCC[C@H]1C(=O)N[C@@H](CO)C(N)=O [Example 15] (H-H[Aib]EGTFTSDYSILLDKK([AEEA-AEEA-γGlu-C20 diacid])AQ[Aib]AFIEYLLE[Aib]GPSSGAPPPS-NH2),0.284 nM,0.613 nM,130 nM,0.0336 nM,2.19 nM
CC[C@H](C)[C@H](NC(=O)[C@H](CC(C)C)NC(=O)[C@H](Cc1ccc(O)cc1)NC(=O)[C@@H](CCC(=O)O)NC(=O)[C@@H](NC(=O)[C@H](Cc1ccccc1)NC(=O)[C@H](CCC(=O)O)NC(=O)C(C)(C)NC(=O)[C@H](CCC(N)=O)NC(=O)[C@H](C)NC(=O)[C@H](CCCCNC(=O)COCCOCCNC(=O)COCCOCCNC(=O)[C@@H](N)CCCCNC(=O)CCCCCCCCCCCCCCCCCCC(=O)O)NC(=O)[C@H](CCC(=O)O)NC(=O)[C@H](CC(=O)O)NC(=O)[C@H](CC(C)C)NC(=O)C(C)(CC(C)C)NC(=O)[C@@H](NC(=O)[C@H](CO)NC(=O)[C@H](Cc1ccc(O)cc1)NC(=O)[C@H](CC(=O)O)NC(=O)[C@H](CO)NC(=O)[C@@H](NC(=O)C(C)(Cc1ccccc1F)NC(=O)[C@@H](NC(=O)CNC(=O)[C@H](CCC(=O)O)NC(=O)C(C)(C)NC(=O)[C@@H](N)Cc1ccc(O)cc1)[C@@H](C)O)[C@@H](C)O)[C@@H](C)CC)[C@@H](C)CC)C(=O)N[C@@H](CCC(=O)O)C(=O)NCC(=O)NCC(=O)N1CCC[C@H]1C(=O)N[C@@H](CO)C(=O)N[C@@H](CO)C(=O)NCC(=O)N[C@@H](C)C(=O)N1CCC[C@H]1C(=O)N1CCC[C@H]1C(=O)N1CCC[C@H]1C(=O)N[C@@H](CO)C(N)=O (stereo partly shown) [Example 216],0.0559 nM,0.0401 nM,45.2 nM,0.0327 nM,2.34 nM
CC[C@H](C)[C@H](NC(=O)[C@H](CC(C)C)NC(=O)[C@H](Cc1ccc(O)cc1)NC(=O)[C@H](CCC(=O)O)NC(=O)[C@@H](NC(=O)[C@H](Cc1ccccc1)NC(=O)[C@H](C)NC(=O)[C@H](CCC(N)=O)NC(=O)[C@H](CCC(N)=O)NC(=O)[C@H](C)NC(=O)[C@H](CCCCNC(=O)COCCOCCNC(=O)COCCOCCNC(=O)CC[C@H](NC(=O)CCCCCCCCCCCCCCCCCCC(=O)O)C(=O)O)NC(=O)[C@H](CCC(=O)O)NC(=O)[C@H](CC(=O)O)NC(=O)[C@H](CC(C)C)NC(=O)[C@](C)(CC(C)C)NC(=O)[C@@H](NC(=O)[C@H](CO)NC(=O)[C@H](Cc1ccc(O)cc1)NC(=O)[C@H](CC(=O)O)NC(=O)[C@H](CO)NC(=O)[C@@H](NC(=O)[C@](C)(Cc1ccccc1)NC(=O)[C@@H](NC(=O)CNC(=O)[C@H](CCC(=O)O)NC(=O)C(C)(C)NC(=O)[C@@H](N)Cc1ccc(O)cc1)[C@@H](C)O)[C@@H](C)O)[C@@H](C)CC)[C@@H](C)CC)C(=O)N[C@@H](CCC(=O)O)C(=O)NCC(=O)NCC(=O)N1CCC[C@H]1C(=O)N[C@@H](CO)C(=O)N[C@@H](CO)C(=O)NCC(=O)N[C@@H](C)C(=O)N1CCC[C@H]1C(=O)N1CCC[C@H]1C(=O)N1CCC[C@H]1C(=O)N[C@@H](CO)C(N)=O [Example 121] (H-Y[Aib]EGT[αMeF]TSDYSI[αMeL]LDEK([AEEA-AEEA-γGlu-C20 diacid])AQQAFIEYLIEGGPSSGAPPPS-NH2),0.177 nM,0.076 nM,51.9 nM,0.0849 nM,3.16 nM
CC[C@H](C)[C@H](NC(=O)[C@H](CC(C)C)NC(=O)[C@H](Cc1ccc(O)cc1)NC(=O)[C@@H](CCC(=O)O)NC(=O)[C@@H](NC(=O)[C@H](Cc1ccccc1)NC(=O)[C@H](CCC(=O)O)NC(=O)C(C)(C)NC(=O)[C@H](CCC(N)=O)NC(=O)[C@H](C)NC(=O)[C@H](CCCCNC(=O)COCCOCCNC(=O)COCCOCCNC(=O)CC[C@H](NC(=O)CCCCCCCCCCCCCCCCCCC(=O)O)C(=O)O)NC(=O)[C@H](CCN)NC(=O)[C@H](CC(=O)O)NC(=O)[C@H](CC(C)C)NC(=O)[C@](C)(CC(C)C)NC(=O)[C@@H](NC(=O)[C@H](CO)NC(=O)[C@H](Cc1ccc(O)cc1)NC(=O)[C@H](CC(=O)O)NC(=O)[C@H](CO)NC(=O)[C@@H](NC(=O)[C@](C)(Cc1ccccc1F)NC(=O)[C@@H](NC(=O)CNC(=O)[C@H](CCC(=O)O)NC(=O)C(C)(C)NC(=O)[C@@H](N)Cc1ccc(O)cc1)[C@@H](C)O)[C@@H](C)O)[C@@H](C)CC)[C@@H](C)CC)C(=O)N[C@@H](CCC(=O)O)C(=O)NCC(=O)NCC(=O)N1CCC[C@H]1C(=O)N[C@@H](CO)C(=O)N[C@@H](CO)C(=O)NCC(=O)N[C@@H](C)C(=O)N1CCC[C@H]1C(=O)N1CCC[C@H]1C(=O)N1CCC[C@H]1C(=O)N[C@@H](CO)C(N)=O [Example 217] (H-Y[Aib]EGT[αMePhe(2-F)]TSDYSI[αMeL]LD[Dab]K([AEEA-AEEA-γGlu-C20 diacid])AQ[Aib]EFI[dE]YLIEGGPSSGAPPPS-NH2),0.0376 nM,0.0563 nM,516 nM,0.0383 nM,2.02 nM
